Experimental data reported in PMC10229426, “An optimized bioluminescent substrate for non-invasive imaging in the brain” (Nature Chemical Biology, 2023).
Values joined by “and” are separate entries in the source; they are usually repeats but may differ in a detail not shown here. Equal values may be shown once. “Also recorded” adds a separate entry of the source.

Legend:
[1] = target: Antares (Oplophorus gracilirostris, UniProt Q9GV45, A31E/A60N/A81I/F95D/I117V/K70R/L54V/L99Q/M102K/N193R/P142E/Q151K/Q38R/Q45L/V71I/Y165I); assay: Enzymatic analysis of Antares and Fz analogs; assay type: biochemical; design: His tag (inferred from purification on HisLink resin); made in house; host or cells: Escherichia coli; settings: for Relative kcat: relative to Fz
Method: Two milliliters of LB broth with 100 µg ml^–1 ampicillin was inoculated with a single colony of clone ATG-3802 (Antares codon optimized for Escherichia coli) and grown overnight at 37 °C. On the following day, the overnight culture was diluted 1:100 into a flask containing 50 ml of Terrific Broth and 100 µg ml^–1 ampicillin. The sample was grown at 37 °C with shaking (275 r.p.m.) for 4 h. The culture was chilled on ice, and 1% rhamnose was added to induce protein expression. The culture was placed in a 15 °C shaker (275 r.p.m.) and grown for 48 h. Cells were collected by centrifugation and resuspended in 10 ml of 100 mM HEPES (pH 7.5), 150 mM NaCl, 10 mM imidazole and 1 mg ml^–1 lysozyme. The resuspended cells were sonicated on ice (5 s on, 5 s off for 2 min, 12 amplitude). The sample was centrifuged (12,000g for 15 min), and 1 ml of HisLink resin (Promega) was added to the cleared lysate. Samples were incubated at 4 °C on an orbital mixer for 2 h. After incubation, the resin was washed three times with HisLink wash buffer (Promega). After the final wash, the sample was eluted (incubated 3 min with mixing) two times with 1 ml of HisLink elution buffer (Promega). The sample was dialyzed (10-kDa molecular weight cutoff, Thermo Fisher Slide-A-Lyzer) for 24 h in TBS and 50% glycerol.
To quantify luminescence as a function of substrate concentration, substrates were diluted to 30 μM and serially diluted in twofold steps into DPBS with 0.01% BSA in triplicate. Fifty microliters of each substrate dilution was then mixed with 50 μl of a solution of 20 pM Antares protein in DPBS with 0.01% BSA. Luminescence was measured immediately using a GloMax-Multi+ luminometer (Promega). Km and Vmax were then calculated using the Michaelis–Menten non-linear regression function in the program Prism (GraphPad).

[2] = Toxicity in mice: necropsy and histopathology; assay type: in vivo, C57BL/6 mice; design: key to BMH, brain multifocal hemorrhage score / HN, hepatocellular necrosis score / RTD, renal tubular dilation score / RTDR, renal tubular degeneration and regeneration score: 0: absent; 1: minimal; 2: mild; 3: moderate; 4: severe; key to HMNH, heart myocardial necrosis and hemorrhage score: 0: no lesions; 1: <5% of myocardium affected; 2: 5-10% affected; 3: 10-25% affected; 4: >25% affected; key to SRPHMV, splenic red pulp histiocytosis with microvesicular vacuolation score: 0: no lesions; 1: lesions present; key to LC, Liver capsule score: 0: normal; 1: segmental subcapsular necrosis +/- neutrophilic infiltrate; Total organ score: scale not given here; settings: for toxicity after a single i.p. injection: 4.2 µmol with 20 mg P-407, one injection; for BMH, brain multifocal hemorrhage score / HMNH, heart myocardial necrosis and hemorrhage score / HN, hepatocellular necrosis score / LC, Liver capsule score / RTD, renal tubular dilation score / RTDR, renal tubular degeneration and regeneration score / SRPHMV, splenic red pulp histiocytosis with microvesicular vacuolation score / Total organ score / ∆ weight: individual mice
Method: (§1) Male C57BL/6 mice of 2 months of age were killed by CO2 asphyxiation and cardiac exsanguination. All mice were weighed, and a complete gross examination of the external and internal organs was performed. […] Formalin-fixed tissues were processed routinely, embedded in paraffin, sectioned at 5 μm and stained with hematoxylin and eosin. All slides were blindly evaluated for histologic treatment-related effects (Supplementary Table 1) by a board-certified veterinary pathologist.

[3] = Toxicity in mice: necropsy and histopathology; assay type: in vivo, C57BL/6 mice; design: key: 0: absent; 1: present; settings: individual mice
Method: as §1

[4] = Toxicity in mice: necropsy and histopathology; assay type: in vivo, C57BL/6 mice; design: key: 0: absent; 1: minimal accumulation; 2: mild accumulation; 3: moderate accumulation; 4: severe accumulation; settings: individual mice
Method: as §1

Sequence of Antares (Q9GV45 other isoform, or with tags, fused parts or gaps with the stated changes): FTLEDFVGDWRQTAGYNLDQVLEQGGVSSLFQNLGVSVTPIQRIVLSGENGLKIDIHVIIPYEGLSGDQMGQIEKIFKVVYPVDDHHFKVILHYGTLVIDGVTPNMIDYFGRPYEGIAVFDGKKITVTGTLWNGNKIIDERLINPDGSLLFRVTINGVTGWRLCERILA

O=c1c(Cc2ccco2)nc2c(Cc3ccccc3)[nH]c(-c3ccccc3)cn1-2 [Fz, furimazine, reference compound]
Km [1]: 0.38 µM | Relative kcat [1]: 1.0

O=c1c(Cc2ccco2)nc2c(Cc3ccccc3)[nH]c(-c3cccc(F)c3F)cn1-2 [compound 6, cephalofurimazine]
Km [1]: 0.47 µM | Relative kcat [1]: 1.33 | weight loss ([2]; 1.3 µmol CFz with 12 mg P-407, daily for 3 or 5 d): < 5% | effects on organ tissues after daily administration ([2]; 1.3 µmol CFz with 12 mg P-407, daily i.p. for 3 or 5 d, listed as CFz): mild and well tolerated and Renal lesions were minimal to absent | toxicity after three daily i.p. injections ([2]; 4.2 µmol CFz with 20 mg P-407): noticeably toxic to organs | toxicity after a single i.p. injection [2]: minimal effects on heart and kidney tissues without weight loss | toxicity after a single i.p. injection ([2]; listed as CFz): minimal toxicity | BMH, brain multifocal hemorrhage score ([2]; 1 day, 4.2 µmol, 20 mg P-407): 0 | HMNH, heart myocardial necrosis and hemorrhage score ([2]; 1 day, 4.2 µmol, 20 mg P-407): 1 (<5% of myocardium affected) and 0 (2×) | HN, hepatocellular necrosis score ([2]; 1 day, 4.2 µmol, 20 mg P-407): 0 | LC, Liver capsule score ([2]; 1 day, 4.2 µmol, 20 mg P-407): 0 | RTD, renal tubular dilation score ([2]; 1 day, 4.2 µmol, 20 mg P-407): 0 and 1 (<5% of tubules affected) (2×) | RTDR, renal tubular degeneration and regeneration score ([2]; 1 day, 4.2 µmol, 20 mg P-407): 0 (2×) and 1 (<5% of tubules affected) | SRPHMV, splenic red pulp histiocytosis with microvesicular vacuolation score ([2]; 1 day, 4.2 µmol, 20 mg P-407): 0 | Total organ score ([2]; 1 day, 4.2 µmol, 20 mg P-407): 2 (2×) and 1 | ∆ weight ([2]; 1 day, 4.2 µmol, 20 mg P-407): –0.7% and +0.3% and +1.4% | BMH, brain multifocal hemorrhage score ([2]; 3 days, 1.3 µmol, 12 mg P-407): 0 | HMNH, heart myocardial necrosis and hemorrhage score ([2]; 3 days, 1.3 µmol, 12 mg P-407): 1 (<5% of myocardium affected) | HN, hepatocellular necrosis score ([2]; 3 days, 1.3 µmol, 12 mg P-407): 0 (2×) and 2 | LC, Liver capsule score ([2]; 3 days, 1.3 µmol, 12 mg P-407): 0 | RTD, renal tubular dilation score ([2]; 3 days, 1.3 µmol, 12 mg P-407): 1 (<5% of tubules affected) (2×) and 0 | RTDR, renal tubular degeneration and regeneration score ([2]; 3 days, 1.3 µmol, 12 mg P-407): 1 (<5% of tubules affected) | SRPHMV, splenic red pulp histiocytosis with microvesicular vacuolation score ([2]; 3 days, 1.3 µmol, 12 mg P-407): 0 | Total organ score ([2]; 3 days, 1.3 µmol, 12 mg P-407): 3 and 2 and 5 | ∆ weight ([2]; 3 days, 1.3 µmol, 12 mg P-407): –2.2%; also recorded: –0.4%; also recorded: –1.1% | BMH, brain multifocal hemorrhage score ([2]; 3 days, 4.2 µmol, 20 mg P-407): 0 | HMNH, heart myocardial necrosis and hemorrhage score ([2]; 3 days, 4.2 µmol, 20 mg P-407): 2 (5-10% affected) (2×) and 1 (<5% of myocardium affected) | HN, hepatocellular necrosis score ([2]; 3 days, 4.2 µmol, 20 mg P-407): 0 | LC, Liver capsule score ([2]; 3 days, 4.2 µmol, 20 mg P-407): 0 | RTD, renal tubular dilation score ([2]; 3 days, 4.2 µmol, 20 mg P-407): 3 (25%–50% of tubules affected) (2×) and 2 (5%–25% of tubules affected) | RTDR, renal tubular degeneration and regeneration score ([2]; 3 days, 4.2 µmol, 20 mg P-407): 3 (25%–50% of tubules affected) and 2 (5%–25% of tubules affected) (2×) | SRPHMV, splenic red pulp histiocytosis with microvesicular vacuolation score ([2]; 3 days, 4.2 µmol, 20 mg P-407): 1 | Total organ score ([2]; 3 days, 4.2 µmol, 20 mg P-407): 9 (2×) and 6 | ∆ weight ([2]; 3 days, 4.2 µmol, 20 mg P-407): –8.3%; also recorded: –3.7%; also recorded: –3.0% | BMH, brain multifocal hemorrhage score ([2]; 5 days, 1.3 µmol, 12 mg P-407): 0 | HMNH, heart myocardial necrosis and hemorrhage score ([2]; 5 days, 1.3 µmol, 12 mg P-407): 0 (2×) and 1 (<5% of myocardium affected) | HN, hepatocellular necrosis score ([2]; 5 days, 1.3 µmol, 12 mg P-407): 0 | LC, Liver capsule score ([2]; 5 days, 1.3 µmol, 12 mg P-407): 0 | RTD, renal tubular dilation score ([2]; 5 days, 1.3 µmol, 12 mg P-407): 0 | RTDR, renal tubular degeneration and regeneration score ([2]; 5 days, 1.3 µmol, 12 mg P-407): 1 (<5% of tubules affected) (2×) and 0 | SRPHMV, splenic red pulp histiocytosis with microvesicular vacuolation score ([2]; 5 days, 1.3 µmol, 12 mg P-407): 1 | Total organ score ([2]; 5 days, 1.3 µmol, 12 mg P-407): 1 (2×) and 3 | ∆ weight ([2]; 5 days, 1.3 µmol, 12 mg P-407): –3.2%; also recorded: –4.6%; also recorded: –1.8% | HT, heart telangiectasia score ([3]; 1 day, 4.2 µmol, 20 mg P-407): 1 | HPMC, heart perivascular myxomatous change score ([3]; 3 days, 4.2 µmol, 20 mg P-407): 1 | HT, heart telangiectasia score ([3]; 3 days, 4.2 µmol, 20 mg P-407): 1 | HPMC, heart perivascular myxomatous change score ([3]; 5 days, 1.3 µmol, 12 mg P-407): 1 | HT, heart telangiectasia score ([3]; 5 days, 1.3 µmol, 12 mg P-407): 1 | KCHMV, Kupffer cell hyperplasia and microvesicular vacuolation score ([4]; 3 days, 4.2 µmol, 20 mg P-407): 2 | KCHMV, Kupffer cell hyperplasia and microvesicular vacuolation score ([4]; 5 days, 1.3 µmol, 12 mg P-407): 2
